What was measured:
[1] = target: Norepinephrine transporter (Rattus norvegicus, UniProt Q9WTR4); test: Displacement of [3H]nisoxetine from NET in rat […]; type: tissue-based
[2] = Selectivity for SERT over DAT; type: protein assay; settings: Rattus norvegicus
[3] = target: Sodium-dependent serotonin transporter (Rattus norvegicus, UniProt P31652); test: Displacement of [3H]paroxetine from SERT in rat frontoparietal cerebral cortex; type: tissue-based
[4] = target: Sodium-dependent dopamine transporter (Rattus norvegicus, UniProt P23977); test: Displacement of [3H]GBR-12935 from DAT in rat […]; type: tissue-based
[5] = target: Monoamine transporters; Norepinephrine & serotonin (Rattus norvegicus) (UniProt P31652+Q9WTR4); test: Selectivity for SERT over NET; type: protein assay

Sequence of Norepinephrine transporter (Q9WTR4 whole entry): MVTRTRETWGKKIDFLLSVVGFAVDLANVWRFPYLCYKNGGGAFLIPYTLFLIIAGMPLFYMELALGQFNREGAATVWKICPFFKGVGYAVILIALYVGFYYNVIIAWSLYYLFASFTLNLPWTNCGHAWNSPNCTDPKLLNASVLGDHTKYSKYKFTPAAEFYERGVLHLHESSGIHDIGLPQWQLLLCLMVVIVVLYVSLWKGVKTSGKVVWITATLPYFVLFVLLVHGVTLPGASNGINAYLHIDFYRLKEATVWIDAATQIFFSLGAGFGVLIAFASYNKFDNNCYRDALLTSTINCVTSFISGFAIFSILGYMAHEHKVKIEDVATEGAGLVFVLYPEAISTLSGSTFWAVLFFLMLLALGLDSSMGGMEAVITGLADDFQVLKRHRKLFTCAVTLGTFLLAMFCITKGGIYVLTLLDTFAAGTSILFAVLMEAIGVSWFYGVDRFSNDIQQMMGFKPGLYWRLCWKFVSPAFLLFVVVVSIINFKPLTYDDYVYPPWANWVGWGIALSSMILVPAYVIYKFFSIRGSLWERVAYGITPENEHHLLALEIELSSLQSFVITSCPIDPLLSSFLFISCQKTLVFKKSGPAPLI
Sequence of Sodium-dependent serotonin transporter (P31652 whole entry): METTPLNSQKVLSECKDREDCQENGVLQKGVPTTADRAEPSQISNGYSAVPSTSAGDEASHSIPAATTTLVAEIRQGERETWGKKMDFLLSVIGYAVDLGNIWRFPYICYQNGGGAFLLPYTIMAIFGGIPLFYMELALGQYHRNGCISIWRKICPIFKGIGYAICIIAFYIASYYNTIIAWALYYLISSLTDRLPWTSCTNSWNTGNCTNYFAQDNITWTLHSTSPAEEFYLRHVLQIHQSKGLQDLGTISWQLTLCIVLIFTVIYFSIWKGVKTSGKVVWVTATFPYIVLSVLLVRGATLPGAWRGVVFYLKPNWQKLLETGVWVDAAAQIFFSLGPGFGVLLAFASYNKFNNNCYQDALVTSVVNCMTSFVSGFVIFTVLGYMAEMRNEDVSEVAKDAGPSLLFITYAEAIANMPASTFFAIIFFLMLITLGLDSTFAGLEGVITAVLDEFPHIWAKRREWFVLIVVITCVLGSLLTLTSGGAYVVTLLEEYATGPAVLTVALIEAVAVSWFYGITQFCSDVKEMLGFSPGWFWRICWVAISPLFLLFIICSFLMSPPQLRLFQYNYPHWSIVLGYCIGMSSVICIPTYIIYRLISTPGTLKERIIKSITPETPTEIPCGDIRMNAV
Sequence of Sodium-dependent dopamine transporter (P23977 whole entry): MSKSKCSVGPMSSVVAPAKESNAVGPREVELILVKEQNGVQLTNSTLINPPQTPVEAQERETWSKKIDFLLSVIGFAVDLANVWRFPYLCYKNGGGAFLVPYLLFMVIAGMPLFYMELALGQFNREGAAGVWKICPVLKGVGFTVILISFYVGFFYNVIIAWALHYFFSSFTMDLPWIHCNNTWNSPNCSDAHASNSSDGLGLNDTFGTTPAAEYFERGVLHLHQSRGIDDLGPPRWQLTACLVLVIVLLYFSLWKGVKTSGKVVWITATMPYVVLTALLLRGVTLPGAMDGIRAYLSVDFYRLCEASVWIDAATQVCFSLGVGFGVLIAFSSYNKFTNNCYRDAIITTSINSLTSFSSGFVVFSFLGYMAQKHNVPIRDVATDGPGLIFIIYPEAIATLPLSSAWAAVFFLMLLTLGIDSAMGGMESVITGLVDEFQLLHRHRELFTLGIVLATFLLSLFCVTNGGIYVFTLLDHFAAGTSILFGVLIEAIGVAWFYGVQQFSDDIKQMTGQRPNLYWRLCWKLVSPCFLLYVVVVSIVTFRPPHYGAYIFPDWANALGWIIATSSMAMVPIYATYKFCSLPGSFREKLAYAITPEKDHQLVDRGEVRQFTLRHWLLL

SMILES | Ki [1] [nM] | Ratio Ki [2] | Ki [3] [nM] | Ki [4] [nM] | Ratio Ki [5]
COC(=O)C1C(c2ccc(-c3ccoc3)cc2)CC2CCC1N2C (stereo not given) | 127 | 40 | 0.35 | 14.2 | 
COC(=O)C1C2CCC(CC1c1ccc(-c3cncc(OC)c3)cc1)N2 (stereo not given) | 739 | 212 | 1.56 | 332 | 
COC(=O)C1C(c2ccc(-c3nccs3)cc2)CC2CCC1N2C (stereo not given) | > 10000 | 311 | 1.67 | 520 | 
COC(=O)C1C(c2ccc(-c3cnc4ccccc4c3)cc2)CC2CCC1N2C (stereo not given) | > 30000 | 3 |  |  | 
COC(=O)C1C(c2ccc(-c3ccco3)cc2)CC2CCC1N2C (stereo not given) | 1400 | 6 |  |  | 
COC(=O)C1C(c2ccc(-c3ccccn3)cc2)CC2CCC1N2C (stereo not given) | > 10000 | 0.27 |  |  | 
COC(=O)C1C(c2ccc(-c3cccnc3)cc2)CC2CCC1N2C (stereo not given) | 1410 | 7 |  | 26.1 | 
COC(=O)C1C(c2ccc(-c3ccncc3)cc2)CC2CCC1N2C (stereo not given) | > 30000 |  | > 1000 | 1570 | 
COC(=O)C1C(c2ccc(-c3cncc(OC)c3)cc2)CC2CCC1N2C (stereo not given) | 1590 | 150 | 3.91 | 587 | 
COC(=O)C1C(c2ccc(-c3cnccn3)cc2)CC2CCC1N2C (stereo not given) | 213 | 10 | 11.3 | 121 | 
COC(=O)C1C(c2ccc(-c3cccc(F)c3)cc2)CC2CCC1N2C (stereo not given) | 249 | 50 | 0.5 | 25.2 | 498
COC(=O)C1C(c2ccc(-c3cncnc3)cc2)CC2CCC1N2C (stereo not given) | > 10000 | 110 |  |  | 
COC(=O)C1C2CCC(CC1c1ccc(-c3ccco3)cc1)N2 (stereo not given) | 12.7 | 25 | 0.15 | 3.76 | 
COC(=O)C1C(c2ccc(-c3cc(F)cc(F)c3)cc2)CC2CCC1N2C (stereo not given) | 109 | 77 | 0.41 | 31.7 | 265
COC(=O)C1C2CCC(CC1c1ccc(-c3nccs3)cc1)N2 (stereo not given) | 213 | 13 | 5.15 | 69.6 | 
COC(=O)C1C(c2ccc(-c3cccc(N(C)C)c3)cc2)CC2CCC1N2C (stereo not given) | > 30000 |  | > 1000 | 545 | 

— ChEMBL document CHEMBL1148559, “Synthesis and monoamine transporter affinity of new 2beta-carbomethoxy-3beta-[aryl or heteroaryl]phenyltropanes” (Bioorg Med Chem Lett, 2006)
